# Source: patent publication US11247972B2, “Compositions and methods for treating toxoplasmosis, cryptosporidiosis, and other apicomplexan protozoan related diseases” (University of Washington through its Center for …, priority 2010, dated 2022)
# Legend:
# [1] = molecular target: PfCDPK1 (Plasmodium falciparum (isolate 3D7), UniProt P62344); experiment: biochemical; conditions: read-out: PfCDPK1 (% inhibition @ 3 uM)
# [2] = molecular target: PfCDPK4 (Plasmodium falciparum (isolate 3D7), UniProt Q8IBS5); experiment: biochemical; conditions: read-out: PfCDPK4 (% inhibition @ 3 uM)
# [3] = molecular target: CpCDPK1 (Cryptosporidium parvum (strain Iowa II), UniProt A3FQ16); assay type: biochemical
# [4] = molecular target: TgCDPK1 (Toxoplasma gondii, UniProt Q9BJF5); assay type: biochemical
# [5] = tested on: P. berghei; parameters: species or system Plasmodium berghei; conditions: in vivo
# [6] = tested on: P. falciparum; experiment: P. falciparum NF54 gametocyte exflagellation with compound in blood; assay type: cell-based, Plasmodium falciparum; conditions: Plasmodium falciparum, read-out: Parasite Proliferation Assay EC50 P. falciparum Exflaggelation
# [7] = tested on: C. parvum; experiment: Immunosuppressed (SCID-beige) mouse C. parvum model, stool qRT-PCR; assay type: in vivo, Cryptosporidium parvum; conditions: oral gavage once a day, days 3-7 and 10-14; 29 and 150 50 mg/kg/day, Paromomycin 2 g/kg/day
# Procedure: Shown are mean of the parasite numbers detected in 25 mg of stool from each mouse, by qRT-PCR.
# Sequence of CpCDPK1 (A3FQ16 1-538): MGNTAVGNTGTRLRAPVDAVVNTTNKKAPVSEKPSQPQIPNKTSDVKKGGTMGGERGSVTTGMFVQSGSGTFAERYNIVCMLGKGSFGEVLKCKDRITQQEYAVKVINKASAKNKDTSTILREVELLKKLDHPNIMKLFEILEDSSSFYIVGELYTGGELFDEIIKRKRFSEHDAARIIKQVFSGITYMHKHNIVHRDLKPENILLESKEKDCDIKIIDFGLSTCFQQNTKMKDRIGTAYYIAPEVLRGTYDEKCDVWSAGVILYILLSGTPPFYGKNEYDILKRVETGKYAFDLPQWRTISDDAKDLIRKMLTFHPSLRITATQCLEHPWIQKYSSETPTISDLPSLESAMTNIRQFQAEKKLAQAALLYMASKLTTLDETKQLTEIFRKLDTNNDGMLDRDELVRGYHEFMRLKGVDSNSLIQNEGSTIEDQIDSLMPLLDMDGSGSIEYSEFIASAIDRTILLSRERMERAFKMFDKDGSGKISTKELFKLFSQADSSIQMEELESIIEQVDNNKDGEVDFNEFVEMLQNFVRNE
# Sequence of TgCDPK1 (Q9BJF5 1-507): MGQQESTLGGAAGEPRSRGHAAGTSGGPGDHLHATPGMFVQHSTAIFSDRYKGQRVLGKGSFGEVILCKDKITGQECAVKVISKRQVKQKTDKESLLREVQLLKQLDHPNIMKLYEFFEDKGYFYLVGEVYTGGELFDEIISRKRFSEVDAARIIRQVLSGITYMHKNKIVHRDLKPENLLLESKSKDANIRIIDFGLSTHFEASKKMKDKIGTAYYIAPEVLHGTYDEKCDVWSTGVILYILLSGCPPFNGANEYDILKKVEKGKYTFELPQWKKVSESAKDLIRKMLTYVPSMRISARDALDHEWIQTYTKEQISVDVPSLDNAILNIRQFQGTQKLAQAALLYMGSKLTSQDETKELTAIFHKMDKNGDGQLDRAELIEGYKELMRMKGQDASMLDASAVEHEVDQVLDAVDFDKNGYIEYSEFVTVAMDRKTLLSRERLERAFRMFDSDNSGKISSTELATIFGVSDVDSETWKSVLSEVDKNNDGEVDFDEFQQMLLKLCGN
SMILES,inhibition at 3 µM [1] [%],inhibition at 3 µM [2] [%],further results
"CC(C)n1nc(-c2ccc(Cl)c(Cl)c2)c2c(N)ncnc21 [Compound 7c, 3-(3,4-dichlorophenyl)-1-isopropyl-1H-pyrazolo[3,4-d]pyrimidin-4-amine]",93,97,inhibition of CpCDPK1 (in words) [3]: potent against both enzymes
"COc1ccc(-c2nn(C(C)C)c3ncnc(N)c23)cc1C [Compound 7m, 1-isopropyl-3-(4-methoxy-3-methylphenyl)-1H-pyrazolo[3,4-d]pyrimidin-4-amine]",77,85,inhibition of CpCDPK1 (in words) [3]: potent against both enzymes
"CSc1cccc(-c2nn(C(C)C)c3ncnc(N)c23)c1 [Compound 7ab, 1-isopropyl-3-(3-(methylthio)phenyl)-1H-pyrazolo[3,4-d]pyrimidin-4-amine]",,,relative potency TgCDPK1 versus CpCDPK1 (in words) [4]: more potent against TgCDPK1 than CpCDPK1
"CC(C)(C)n1nc(-c2ccc3ccccc3c2)c2c(N)ncnc21 [NA-PP2, reference compound]",,,formation of oocysts in A. stephensi [5]: hundreds of oocysts per mosquito
"COc1ccc(-c2nn(C(C)C)c3ncnc(N)c23)cc1OC [Compound 7k, 3-(3,4-dimethoxyphenyl)-1-isopropyl-1H-pyrazolo[3,4-d]pyrimidin-4-amine]",93,43,inhibition of CpCDPK1 (in words) [3]: potent against both enzymes
"CCOc1ccc2cc(-c3nn(CC4CCN(C)CC4)c4ncnc(N)c34)ccc2c1 [Compound 150, 3-(6-ethoxynaphthalen-2-yl)-1-((1-methylpiperidin-4-yl)methyl)-1H-pyrazolo[3,4-d]pyrimidin-4-amine]",,,EC50 [6]: 50 nM; parasites in stool at the end of treatment [7]: not detected; rebound of parasite burden after treatment [7]: not
"CC(C)c1ccc(-c2nn(C(C)C)c3ncnc(N)c23)cc1 [Compound 7d, 1-isopropyl-3-(4-isopropylphenyl)-1H-pyrazolo[3,4-d]pyrimidin-4-amine]",90,80,relative potency TgCDPK1 versus CpCDPK1 (in words) [4]: more potent against TgCDPK1 than CpCDPK1
"NC[C@@H]1O[C@H](O[C@H]2[C@@H](O)[C@H](O[C@@H]3[C@@H](O)[C@H](N)C[C@H](N)[C@H]3O[C@H]3O[C@H](CO)[C@@H](O)[C@H](O)[C@H]3N)O[C@@H]2CO)[C@H](N)[C@@H](O)[C@@H]1O [Paromomycin, reference compound]",,,parasites in stool at the end of treatment [7]: not detected; rebound of parasite burden after treatment [7]: quickly rebounded
"CC(C)n1nc(-c2ccc(Cl)cc2)c2c(N)ncnc21 [Compound 7a, 3-(4-chlorophenyl)-1-isopropyl-1H-pyrazolo[3,4-d]pyrimidin-4-amine]",97,86,relative potency TgCDPK1 versus CpCDPK1 (in words) [4]: more potent against TgCDPK1 than CpCDPK1
"CC(C)n1nc(-c2cccc(Cl)c2)c2c(N)ncnc21 [Compound 7b, 3-(3-chlorophenyl)-1-isopropyl-1H-pyrazolo[3,4-d]pyrimidin-4-amine]",72,85,relative potency TgCDPK1 versus CpCDPK1 (in words) [4]: more potent against TgCDPK1 than CpCDPK1
"Cc1ccc(C(F)(F)F)cc1COc1ccc2cc(-c3nn(C(C)C)c4ncnc(N)c34)ccc2c1 [Compound 50, 1-isopropyl-3-(6-(2-methyl-5-(trifluoromethyl)benzyloxy)naphthalen-2-yl)-1H-pyrazolo[3,4-d]pyrimidin-4-amine]",83,26,
"COc1ccc(-c2nn(C(C)C)c3ncnc(N)c23)cc1OC(C)C [Compound 23, 3-(3-isopropoxy-4-methoxyphenyl)-1-isopropyl-1H-pyrazolo[3,4-d]pyrimidin-4-amine]",75,11,
"CC(C)(C)n1nc(-c2ccc(NC(=O)C3CCCCC3)cc2)c2c(N)ncnc21 [Compound 64, N-(4-(4-amino-1-tert-butyl-1H-pyrazolo[3,4-d]pyrimidin-3-yl)phenyl)cyclohexanecarboxamide]",101,66,
"CCOc1ccc2cc(-c3nc(C(C)C)n4ccnc(N)c34)ccc2c1 [Compound 10, 1-(6-ethoxynaphthalen-2-yl)-3-isopropylimidazo[1,5-a]pyrazin-8-amine]",93,94,
"Nc1ncnc2c1c(-c1ccc3cc(OCc4ccc(Cl)cc4)ccc3c1)nn2CC1CCNCC1 [Compound 39, 3-(6-(4-chlorobenzyloxy)naphthalen-2-yl)-1-(piperidin-4-ylmethyl)-1H-pyrazolo[3,4-d]pyrimidin-4-amine]",102,98,
"CC(C)(C)n1nc(-c2ccc(NC(=O)c3ccccc3)cc2)c2c(N)ncnc21 [Compound 65, N-(4-(4-amino-1-tert-butyl-1H-pyrazolo[3,4-d]pyrimidin-3-yl)phenyl)benzamide]",101,53,
"Cc1cc(-c2nn(C(C)C)c3ncnc(N)c23)ccc1F [Compound 7i, 3-(4-fluoro-3-methylphenyl)-1-isopropyl-1H-pyrazolo[3,4-d]pyrimidin-4-amine]",79,79,inhibition of CpCDPK1 (in words) [3]: potent against both enzymes

SMILES,inhibition at 3 µM [1] [%],inhibition at 3 µM [2] [%],further results
"CCCC(=O)Nc1ccc(-c2nn(C(C)(C)C)c3ncnc(N)c23)cc1 [Compound 61, N-(4-(4-amino-1-tert-butyl-1H-pyrazolo[3,4-d]pyrimidin-3-yl)phenyl)butyramide]",101,80,
"CC(C)c1nc(-c2ccc3ccccc3c2)c2c(N)nccn12 [Compound 8, 3-isopropyl-1-(naphthalen-2-yl)imidazo[1,5-a]pyrazin-8-amine]",92,92,
"CC(C)n1nc(-c2cnc3ccccc3c2)c2c(N)ncnc21 [Compound 7t, 1-isopropyl-3-(quinolin-3-yl)-1H-pyrazolo[3,4-d]pyrimidin-4-amine]",65,83,inhibition of CpCDPK1 (in words) [3]: potent inhibitors of both enzymes; inhibition of TgCDPK1 (in words) [4]: potent inhibitors of both enzymes
"C=CCOc1ccc2cc(-c3nn(C(C)C)c4ncnc(N)c34)ccc2c1 [Compound 41, 3-(6-(allyloxy)naphthalen-2-yl)-1-isopropyl-1H-pyrazolo[3,4-d]pyrimidin-4-amine]",101,98,
"CC(=O)N1CCC(Cn2nc(Cc3cccc4ccccc34)c3c(N)ncnc32)CC1 [Compound 5k, 1-(4-((4-amino-3-(naphthalen-1-ylmethyl)-1H-pyrazolo[3,4-d]pyrimidin-1-yl)methyl)piperidin-1-yl)ethanone]",69,28,
CC(C)(C)n1nc(-c2ccccc2)c2c(N)ncnc21 [Compound 140],98,90,
"COc1cc(-c2nn(C(C)C)c3ncnc(N)c23)cc(OC)c1OC [Compound 7l, 1-isopropyl-3-(3,4,5-trimethoxyphenyl)-1H-pyrazolo[3,4-d]pyrimidin-4-amine]",,,relative potency TgCDPK1 versus CpCDPK1 (in words) [4]: equipotent or slightly selective for CpCDPK1
"Cc1ccc(-c2nn(C(C)C)c3ncnc(N)c23)cc1C [Compound 7h, 3-(3,4-dimethylphenyl)-1-isopropyl-1H-pyrazolo[3,4-d]pyrimidin-4-amine]",83,85,
COc1ccc2cc(-c3nn(C(C)(C)C)c4ncnc(N)c34)ccc2c1 [Compound 135],96,97,
"CCCCOc1ccc2cc(-c3nn(C(C)C)c4ncnc(N)c34)ccc2c1 [Compound 42, 3-(6-butoxynaphthalen-2-yl)-1-isopropyl-1H-pyrazolo[3,4-d]pyrimidin-4-amine]",101,94,
Nc1ncnc2c1c(-c1ccc3nccnc3c1)nn2CC1CCNCC1 [Compound 122],97,32,
N[C@@H](Cc1c[nH]cn1)C(=O)Nc1nc2ccc(C(=O)c3ccccc3)cc2[nH]1 [Compound 111],63,41,
COc1ccc(-c2nn(CC3CCNCC3)c3ncnc(N)c23)cc1C [Compound 144],95,94,
COc1ccc(-c2nn(C(C)(C)C)c3ncnc(N)c23)cc1C [Compound 132],96,96,
O=C(NCCC1CCNCC1)Nc1nc2ccc(C(=O)c3ccccc3)cc2[nH]1 [Compound 126],76,65,
"CC(C)n1nc(-c2ccc3c(c2)OCO3)c2c(N)ncnc21 [Compound 7u, 3-(benzo[d][1,3]dioxol-5-yl)-1-isopropyl-1H-pyrazolo[3,4-d]pyrimidin-4-amine]",94,77,
"CC(C)n1nc(-c2cccc3ccccc23)c2c(N)ncnc21 [Compound 7o, 1-isopropyl-3-(naphthalen-1-yl)-1H-pyrazolo[3,4-d]pyrimidin-4-amine]",58,79,
